According to patent US9855253B2, “Pharmaceutical composition containing FK506 derivative for treating fungal infection caused by genus Cryptococcus and genus Candida and use thereof” (INTRON BIOTECHNOLOGY CO., LTD., priority 2014, dated 2018):

How the values were obtained:
[1] = system: Cryptococcus neoformans; experiment: standard agar diffusion method (paper disk), antifungal activity; type: cell-based; settings: for zone of inhibition at 10 µg/mL: Cryptococcus neoformans treated with 10 μg/ml, 6 mm disk, PDA medium, incubated 2-3 days, read-out: diameters of the inhibition zones; for inhibition zones at higher concentrations (FIGS. 1 and 2): concentrations of 10 μg/ml and 40 μg/ml
Experimental: The antifungal activities of FK506 derivatives against fungi such as Cryptococcus neoformans and Candida albicans, which are human pathogenic yeasts, were analyzed by the standard agar diffusion method (Murray et al., 1995 Manual of clinical microbiology (6th ed.), Washington, ASM Press, pp. 1275-1294), 100 μL of a standardized inoculam containing 10^7 CFU/ml, of a fungal suspension was uniformly plated in a Petri dish containing 20 mL of potato-dextrose agar (PDA) medium, and was dried for 5 minutes. A sterilized Whatman No. 1 filter paper disk baying a diameter of 6 mm was wet with each of 0.1 μg, 1 μg, 10 μg and 40 μg/ml of FK506 derivative dissolved in the same solvent as that used for extraction. As a control, an untreated disk and a disk wet with FK506 were used. Each plate was incubated at 30° C. and 37° C. for 2-3 days, and then the antifungal activity of each FK506 derivative was evaluated by comparing the diameters of inhibition zones against Cryptococcus neoformans and Candida albicans. The experiment for analysis of the antifungal activity was repeated at least three times. […] The diameters of the inhibition zones are shown in units of mm.

[2] = background statement; result in words; cited from earlier work
[3] = system: Candida albicans; experiment: serum sensitivity of Candida albicans as a function of time (FIG. 3); type: cell-based; settings: result in words
Source text: FIG. 3 is a graph showing the inhibitory activity of a composition according to one embodiment of the present invention against Candida albicans as a function of time. FIG. 3 is a graph showing an increased or decreased change in the serum sensitivity of Candida albicans for 31-O-demethyl-FK506 that is FK506 derivative. Lower serum sensitivity with the passage of time indicates higher antifungal activity.

SMILES	zone of inhibition at 10 µg/mL [1] [mm]	inhibitory activity against Cryptococcus neoformans (FIGS. 1 and 2) ([1]; result in words)	toxicity or side effects relative to Cyclosporine A [2]	inhibition zones at higher concentrations (FIGS. 1 and 2) ([1]; result in words)	inhibitory activity against Cryptococcus neoformans compared with FK506 ([1]; comparison with FK506, result in words)	inhibitory activity against Candida albicans compared with FK506, late time points (FIG. 3) ([3]; from 6 hours after treatment)	inhibitory activity against Candida albicans compared with FK506 (FIG. 3) ([3]; serum sensitivity over time)
C=CC[C@@H]1/C=C(\C)C[C@H](C)C[C@H](OC)[C@H]2O[C@@](O)(CC(=O)N3CCCC[C@H]3C(=O)O[C@H](/C(C)=C/C3CC[C@@H](O)[C@H](OC)C3)[C@H](C)[C@H](O)CC1=O)[C@H](C)C[C@@H]2OC (stereo partly shown) [Formula (II), 9-deoxo-FK506]	21.6	had inhibitory activity					
C=CC[C@@H]1/C=C(\C)C[C@H](C)C[C@H](OC)[C@H]2O[C@@](O)(C(=O)C(=O)N3CCCC[C@H]3C(=O)O[C@H](/C(C)=C/[C@@H]3CC[C@@H](O)[C@H](OC)C3)[C@H](C)[C@@H](O)CC1=O)[C@H](C)C[C@@H]2OC [FK506]	16.8		comparable to Cyclosporine A				
C=CC[C@@H]1/C=C(\C)C[C@H](C)C[C@H](OC)[C@H]2O[C@@](O)(CC(=O)N3CCCC[C@H]3C(=O)O[C@H](/C(C)=C/C3CC[C@@H](O)[C@H](O)C3)[C@H](C)[C@H](O)CC1=O)[C@H](C)C[C@@H]2OC (stereo partly shown) [Formula (III), 9-deoxo-31-O-demethyl-FK506]	21.6	had inhibitory activity		large inhibition zones			
C=CC[C@@H]1/C=C(\C)C[C@H](C)C[C@H](OC)[C@H]2O[C@@](O)(C(=O)C(=O)N3CCCC[C@H]3C(=O)O[C@H](/C(C)=C/C3CC[C@@H](O)[C@H](O)C3)[C@H](C)C(O)CC1=O)[C@H](C)C[C@@H]2OC (stereo in doubt) [Formula (I), 31-O-demethyl-FK506]	26.4	had inhibitory activity		large inhibition zones	inhibitory activity higher than FK506	maintained inhibitory activity higher than FK506	almost equal to that of FK506
